One may read the IC50 as the concentration that gives 50% inhibition.

In patent publication US8999983B2, “Modulators of Hec1 activity and methods therefor” (Taivex Therapeutics Corporation, priority 2011, dated 2015) one finds IC50 data, which are given here for 26 compounds.

Common to all, as to assay type: cell-based
One test concerns Hela. The test can be described thus: Antiproliferation assay (MTS), HeLa cells. Particulars: Homo sapiens, 96 h. The protocol: (§1) Cells were grown at 37° C. in a humidified atmosphere consisting of 5% CO2 and 95% air.
(§2) Antiproliferation Assays: Cells were plated in a 96-well culture plate with 2000-8000 cells per well. The compounds were prepared in DMSO and used to treat cells in a final concentration of less than 1% DMSO. Compound treatment started after overnight incubation of cells (T0). […] Compound was added to the plate in triplicate wells, and the plates were then incubated for 96 hours. DMSO (compound diluent) was also included and added to the plate in control wells. Cell viability was then determined by MTS assay using the CellTiter 96® aqueous non-radioactive cell proliferation assay system (Promega, Madison, Wis. 53711 USA). A plate reader (Vmax, Molecular Devices, Sunnyvale Calif. 94089 USA) was used to determine the optical densities, and the results were used to deduce concentration-response curves. […] The results were analyzed using linear regression software (GraphPad Prism 5; GraphPad Software Inc. La Jolla Calif. 92037 USA).

The next test has as its system MDA-MB-468. The experiment in a line: Antiproliferation assay (MTS), MDA-MB-468 cells. Particulars: Homo sapiens, MDA-MB-468, 96 h. As to the method:
as §1, §2

The test system of the next test is K562. The test can be described thus: Antiproliferation assay (MTS), K562 cells. Particulars: Homo sapiens, K562, 96 h. As to the method:
as §1, §2

In the next test the test system is MDA-MB-231. The test can be described thus: Antiproliferation assay (MTS), MDA-MB-231 cells. Particulars: Homo sapiens, MDA-MB-231, 96 h, read-out: Antiproliferative IC50 MDA-MB-231, Table 1. As to the method: as §1, §2
The mark [1] stands for this setting: Table 1, read-out: Antiproliferative IC50 Hela.
Setting [2] is: Table 1, read-out: Antiproliferative IC50 MDA-MB-468.
Where [3] appears, read: Table 1, read-out: Antiproliferative IC50 K562.
Setting [4] is: Table 2, read-out: Antiproliferative IC50 Hela.

The structures appear in SMILES notation. Like-named read-outs stand apart in the source and are kept apart here.

Consider `Cc1cc(N(C)C)cc(C)c1-c1csc(NC(=O)c2ccncc2)n1` [Compound 1, N-{4-(4-(Dimethylamino)-2,6-dimethylphenyl)thiazol-2-yl}isonicotinamide], for which the IC50 in the test on Hela (setting [1]) turned out to be 251 nM; in the test with MDA-MB-468 (setting [2]), 167 nM; in the test with K562 (setting [3]) it was 86.7 nM; in the test with MDA-MB-231, 144 nM.
Taken in the same sequence, the figures for `COc1ccc(Oc2cc(C)c(-c3nc(NC(=O)c4ccncc4)sc3Br)c(C)c2)cc1` [Compound 2, N-{5-Bromo-4-(4-(4-methoxyphenoxy)-2,6-dimethylphenyl)thiazol-2-yl}isonicotinamide] were 660 nM, 594 nM, 273 nM and 484 nM.
Taken in the same sequence, the figures for `COc1ccc(Sc2cc(C)c(-c3csc(NC(=O)c4ccncc4)n3)c(Cl)c2)cc1` [Compound 3, N-{4-(2-Chloro-4-(4-methoxyphenylsulfanyl)-6-methylphenyl)thiazol-2-yl}isonicotinamide] were 26.9 nM, 27 nM, 23.4 nM and 28.2 nM.
For `Cc1cc(OCC2CC2)cc(C)c1-c1csc(NC(=O)c2ccncc2)n1` [Compound 4, N-{4-(4-(Cyclopropylmethoxy)-2,6-dimethylphenyl)thiazol-2-yl}isonicotinamide] the same measures were 281 nM, 245 nM, 206 nM and 157 nM.
Regarding `Cc1cc(Oc2ccc(O)nc2)cc(C)c1-c1csc(NC(=O)c2ccncc2)n1` [Compound 5, N-{4-(4-(6-Hydroxypyridin-3-yloxy)-2,6-dimethylphenyl)thiazol-2-yl}isonicotinamide], the IC50 with Hela (setting [1]) came to 903 nM; in the test with MDA-MB-468 (setting [2]), 1010 nM; in the test with K562 (setting [3]), 563 nM; in the test on MDA-MB-231 it was 1240 nM.
Taken in the same sequence, the figures for `Cc1cc(Oc2ncccn2)cc(C)c1-c1csc(NC(=O)c2ccncc2)n1` [Compound 6, N-{4-(2,6-Dimethyl-4-(pyrimidin-2-yloxy)phenyl)thiazol-2-yl}isonicotinamide] were 1020 nM, 661 nM, 366 nM and 713 nM.
Taken in the same sequence, the figures for `Cc1cc(Oc2cnccn2)cc(C)c1-c1csc(NC(=O)c2ccncc2)n1` [Compound 7, N-{4-(2,6-Dimethyl-4-(pyrazin-2-yloxy)phenyl)thiazol-2-yl}isonicotinamide] were 217 nM, 191 nM, 92 nM and 161 nM.
For `COc1cnc(Oc2cc(C)c(-c3csc(NC(=O)c4ccncc4)n3)c(C)c2)nc1` [Compound 8, N-{4-(4-(5-Methoxypyrimidin-2-yloxy)-2,6-dimethylphenyl)thiazol-2-yl}isonicotinamide] the same measures were 130 nM, 85.4 nM, 71.8 nM and 121 nM.
With `COc1ccc(Oc2cc(C)c(-c3csc(NC(=O)c4ccncc4)n3)c(C)c2)cn1` [Compound 9, N-{4-(4-(6-Methoxypyridin-3-yloxy)-2,6-dimethylphenyl)thiazol-2-yl}isonicotinamide], the IC50 in the test with Hela (setting [1]) was 81.6 nM; with MDA-MB-468 (setting [2]), 48.4 nM; in the test with K562 (setting [3]) it was 39.1 nM; with MDA-MB-231, 65.8 nM.
Taken in the same sequence, the figures for `COc1cc(Cl)c(-c2csc(NC(=O)c3ccncc3)n2)c(Cl)c1` [Compound 10, N-(4-(2,6-Dichloro-4-methoxyphenyl)thiazol-2-yl)isonicotinamide] were 4430 nM, 6550 nM, 633 nM and 2330 nM.
Taken in the same sequence, the figures for `Cc1cc(Sc2cnccn2)cc(C)c1-c1csc(NC(=O)c2ccncc2)n1` [Compound 11, N-{4-(2,6-Dimethyl-4-(pyrazin-2-ylthio)phenyl)thiazol-2-yl}isonicotinamide] were 33.4 nM, 52.4 nM, 38.2 nM and 47.4 nM.
Taken in the same sequence, the figures for `COc1cc(F)c(-c2csc(NC(=O)c3ccncc3)n2)c(Cl)c1` [Compound 13, N-(4-(2-Chloro-6-fluoro-4-methoxyphenyl)thiazol-2-yl)isonicotinamide] were 375 nM, 1020 nM, 247 nM and 386 nM.
`COc1cc(F)cc(Cl)c1-c1csc(NC(=O)c2ccncc2)n1` [Compound 14, N-(4-(2-Chloro-4-fluoro-6-methoxyphenyl)thiazol-2-yl)isonicotinamide]: the IC50 in the test with Hela (setting [1]) is 2990 nM; in the test on MDA-MB-468 (setting [2]), 9430 nM; with K562 (setting [3]), 3690 nM; in the test on MDA-MB-231, 6350 nM.
For `Cc1cc(Oc2ccc(OC(C)C)cc2)cc(C)c1-c1csc(NC(=O)c2ccncc2)n1` [Compound 16, N-{4-(4-(4-Isopropoxyphenoxy)-2,6-dimethylphenyl)thiazol-2-yl}isonicotinamide] the same measures were 80.1 nM, 69.7 nM, 59.2 nM and 80.7 nM.
Turning to `COc1ccc(Oc2cc(C)c(-c3csc(NC(=O)c4ccncc4)n3)c(C)c2)nc1` [Compound 18, N-(4-{4-((5-Methoxypyridin-2-yl)oxy)-2,6-dimethylphenyl}thiazol-2-yl)isonicotinamide], the IC50 was 40.6 nM in the test with Hela (setting [1]), 49.4 nM in the test with MDA-MB-468 (setting [2]), 43.7 nM in the test with K562 (setting [3]) and 40.8 nM in the test with MDA-MB-231.
Taken in the same sequence, the figures for `Cc1cc(OCCN(C)C)cc(C)c1-c1csc(NC(=O)c2ccncc2)n1` [Compound 23, N-(4-{4-(2-(Dimethylamino)ethoxy)-2,6-dimethylphenyl}thiazol-2-yl)isonicotinamide] were above 10000 nM, above 10000 nM, above 10000 nM and above 10000 nM.
For `Cc1cc(Oc2ccc([N+](=O)[O-])nc2)cc(C)c1-c1csc(NC(=O)c2ccncc2)n1` [Compound 24, N-{4-(2,6-Dimethyl-4-(6-nitropyridin-3-yloxy)phenyl)thiazol-2-yl}isonicotinamide] the same measures were 73.8 nM, 158 nM, 148 nM and 181 nM.
As to `Cc1cc(Oc2ccc(Oc3ccccc3)cc2)cc(C)c1-c1csc(NC(=O)c2ccncc2)n1` [Compound 26, N-{4-(2,6-Dimethyl-4-(4-phenoxyphenoxy)phenyl)thiazol-2-yl}isonicotinamide], the IC50 was determined as 84.8 nM with Hela (setting [1]), 132 nM with MDA-MB-468 (setting [2]), 64.4 nM in the test with K562 (setting [3]) and 99.4 nM in the test on MDA-MB-231.
Taken in the same sequence, the figures for `Cc1cc(Sc2cnc(OCCN(C)C)cn2)cc(C)c1-c1csc(NC(=O)c2ccncc2)n1` [Compound 28, N-(4-(4-{5-(2-(Dimethylamino)ethoxy)pyrazin-2-ylthio}-2,6-dimethylphenyl)thiazol-2-yl)isonicotinamide] were 32.8 nM, 74.5 nM, 59.2 nM and 124 nM.
As for `COCCNc1ccc(Oc2cc(C)c(-c3csc(NC(=O)c4ccncc4)n3)c(C)c2)cn1` [Compound 29, N-(4-{4-(6-(2-Methoxyethylamino)pyridin-3-yloxy)-2,6-dimethylphenyl}thiazol-2-yl)isonicotinamide], the IC50 in the test with Hela (setting [1]) came to 8.3 nM; in the test on MDA-MB-468 (setting [2]), 16.6 nM; in the test on K562 (setting [3]), 11.7 nM; with MDA-MB-231, 21.9 nM.
On to `COc1cc(C)c(-c2csc(NC(=O)Nc3ccncc3)n2)c(C)c1` [Compound 45, 1-(4-(4-Methoxy-2,6-dimethylphenyl)thiazol-2-yl)-3-(pyridin-4-yl)urea], for which the IC50 in the test on MDA-MB-468 (setting [2]) stood at 615 nM; in the test with K562 (setting [3]) it was 486 nM; with MDA-MB-231, 628 nM.
In the case of `Cc1cc(C)c(-c2csc(NC(=O)/C=C/c3cccnc3)n2)c(C)c1` [Compound 50, (E)-N-(4-Mesitylthiazol-2-yl)-3-(pyridin-3-yl)acrylamide], the IC50 came to 2170 nM in the test with MDA-MB-468 (setting [2]) and 1110 nM with MDA-MB-231.
Turning to `Cc1cc(Nc2ccc(Br)cc2)cc(C)c1-c1csc(NC(=O)c2ccncc2)n1` [Compound 52, N-(4-(4-(4-Bromophenylamino)-2,6-dimethylphenyl)thiazol-2-yl)isonicotinamide], the values for the IC50 in the test with Hela (setting [1]), in the test with K562 (setting [3]) and with MDA-MB-231 were 2130 nM, 362 nM and 717 nM, respectively.
Turning to `COc1cc(C)c(-c2csc(NC(=O)Nc3ccncc3)n2)c(C)c1` [II-67, 1-(4-(4-Methoxy-2,6-dimethylphenyl)thiazol-2-yl)-3-(pyridin-4-yl)urea], the IC50 with Hela (setting [4]) is above 10000 nM.
As to `Cc1cc(C)c(-c2csc(NC(=O)/C=C/c3cccnc3)n2)c(C)c1` [II-103, (E)-N-(4-Mesitylthiazol-2-yl)-3-(pyridin-3-yl)acrylamide], the IC50 is above 10000 nM in the test with Hela (setting [4]) and 2480 nM in the test on K562 (Table 2, read-out: Antiproliferative IC50 K562).
For the compound `Cc1cc(Nc2ccc(Br)cc2)cc(C)c1-c1csc(NC(=O)c2ccncc2)n1` [II-122, N-(4-(4-(4-Bromophenylamino)-2,6-dimethylphenyl)thiazol-2-yl)isonicotinamide], the IC50 in the test with MDA-MB-468 (Table 2, read-out: Antiproliferative IC50 MDA-MB-468) worked out at 1220 nM.
